Assay results: article PMC5382265, “Macrocycle peptides delineate locked-open inhibition mechanism for microorganism phosphoglycerate mutases” (Nature Communications, 2017)
Read-outs that look alike come from different tables or passages of the source. Positions of bridges follow the written chain, without caps; N, C: chain ends. Non-standard residues stand in square brackets, D forms with d. Residues, ends and D or L forms follow the SMILES beside them.

Legend:
[1] = target: T1, C. elegans iPGM (Caenorhabditis elegans, UniProt G5EFZ1); assay: PGM enzyme-coupled bioluminescent end point assay (Kinase-Glo Plus); type: biochemical
T1 sequence (G5EFZ1 1-539): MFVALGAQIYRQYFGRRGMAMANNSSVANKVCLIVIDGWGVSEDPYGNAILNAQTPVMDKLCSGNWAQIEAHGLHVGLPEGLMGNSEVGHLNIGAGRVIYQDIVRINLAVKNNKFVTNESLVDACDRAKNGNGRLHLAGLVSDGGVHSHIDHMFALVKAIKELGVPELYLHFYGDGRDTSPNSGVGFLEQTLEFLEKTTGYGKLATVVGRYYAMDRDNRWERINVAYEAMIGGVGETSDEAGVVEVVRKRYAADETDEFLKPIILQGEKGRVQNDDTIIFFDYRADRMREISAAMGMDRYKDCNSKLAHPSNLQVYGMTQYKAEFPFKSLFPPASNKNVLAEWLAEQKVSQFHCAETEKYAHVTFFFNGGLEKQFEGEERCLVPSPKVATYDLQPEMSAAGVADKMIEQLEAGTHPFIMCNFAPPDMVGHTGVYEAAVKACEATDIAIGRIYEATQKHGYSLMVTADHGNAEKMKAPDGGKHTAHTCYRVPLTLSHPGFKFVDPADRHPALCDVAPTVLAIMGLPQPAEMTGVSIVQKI

[2] = target: E. coli iPGM (Escherichia coli, UniProt P37689); assay: biochemical
[3] = target: B. malayi iPGM (Brugia malayi, UniProt Q4VWF8); assay: biochemical
[4] = target: O. volvulus iPGM (Onchocerca volvulus, UniProt I6LDA6); assay: biochemical
[5] = pIC50, apparent C. elegans iPGM
[6] = pIC50, apparent O. volvulus iPGM

Sequence of O. volvulus iPGM (I6LDA6 whole entry, looked up): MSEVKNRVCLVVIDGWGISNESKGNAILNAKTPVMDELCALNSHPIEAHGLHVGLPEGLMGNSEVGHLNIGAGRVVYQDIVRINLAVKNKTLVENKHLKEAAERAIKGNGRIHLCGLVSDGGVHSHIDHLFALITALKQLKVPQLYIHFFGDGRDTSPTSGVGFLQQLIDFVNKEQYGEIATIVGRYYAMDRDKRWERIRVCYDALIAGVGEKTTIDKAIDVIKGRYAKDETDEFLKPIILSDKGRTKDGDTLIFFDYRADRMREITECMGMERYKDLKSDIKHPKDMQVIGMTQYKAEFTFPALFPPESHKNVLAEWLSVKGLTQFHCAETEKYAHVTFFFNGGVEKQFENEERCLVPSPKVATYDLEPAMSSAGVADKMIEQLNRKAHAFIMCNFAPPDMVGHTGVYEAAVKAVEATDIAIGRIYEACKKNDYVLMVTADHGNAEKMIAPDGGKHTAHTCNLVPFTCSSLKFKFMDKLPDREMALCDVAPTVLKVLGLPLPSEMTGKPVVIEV
Sequence of E. coli iPGM (P37689 whole entry, looked up): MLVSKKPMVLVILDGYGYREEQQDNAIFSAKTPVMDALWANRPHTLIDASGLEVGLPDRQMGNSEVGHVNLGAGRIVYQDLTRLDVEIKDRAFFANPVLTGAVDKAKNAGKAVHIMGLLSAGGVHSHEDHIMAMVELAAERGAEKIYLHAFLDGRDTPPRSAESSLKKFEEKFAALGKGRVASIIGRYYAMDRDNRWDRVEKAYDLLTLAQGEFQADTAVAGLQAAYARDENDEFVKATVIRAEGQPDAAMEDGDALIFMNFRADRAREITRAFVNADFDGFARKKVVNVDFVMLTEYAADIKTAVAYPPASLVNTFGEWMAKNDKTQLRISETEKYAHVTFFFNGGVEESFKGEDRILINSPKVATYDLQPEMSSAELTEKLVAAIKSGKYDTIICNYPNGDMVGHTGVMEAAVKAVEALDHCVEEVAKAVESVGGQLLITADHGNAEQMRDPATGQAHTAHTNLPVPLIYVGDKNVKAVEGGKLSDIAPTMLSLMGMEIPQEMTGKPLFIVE
Sequence of B. malayi iPGM (Q4VWF8 whole entry, looked up): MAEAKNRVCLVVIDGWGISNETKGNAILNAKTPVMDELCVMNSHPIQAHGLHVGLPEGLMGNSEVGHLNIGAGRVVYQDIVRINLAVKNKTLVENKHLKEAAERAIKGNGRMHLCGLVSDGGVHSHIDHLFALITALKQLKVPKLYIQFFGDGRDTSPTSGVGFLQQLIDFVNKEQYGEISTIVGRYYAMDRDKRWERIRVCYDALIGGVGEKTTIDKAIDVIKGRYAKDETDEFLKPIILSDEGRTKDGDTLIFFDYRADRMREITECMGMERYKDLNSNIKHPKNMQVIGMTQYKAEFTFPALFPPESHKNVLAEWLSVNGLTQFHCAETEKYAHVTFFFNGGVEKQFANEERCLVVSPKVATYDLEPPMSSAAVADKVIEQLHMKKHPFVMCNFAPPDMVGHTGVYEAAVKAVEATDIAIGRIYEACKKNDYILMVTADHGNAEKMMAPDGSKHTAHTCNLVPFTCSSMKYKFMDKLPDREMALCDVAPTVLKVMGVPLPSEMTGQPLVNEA

Row | Structure (SMILES) | IC50 ([1]; pIC50 C. elegans iPGM) | IC50 ([3]; pIC50 B. malayi iPGM) | IC50 ([2]; pIC50 E. coli iPGM) | IC50 [1, 5] | IC50 ([3]; pIC50, apparent B. malayi iPGM) | IC50 [4, 6] | IC50 ([2]; pIC50, apparent E. coli iPGM) | IC50 ([4]; pIC50, M O. volvulus iPGM) | also measured
1 | CC[C@H](C)[C@@H]1NC(=O)[C@H](CO)NC(=O)[C@H](CCCNC(=N)N)NC(=O)[C@H](CC(N)=O)NC(=O)[C@H](CCC(N)=O)NC(=O)[C@@H](Cc2ccc(O)cc2)NC(=O)CSC[C@@H](C(=O)NCC(N)=O)NC(=O)[C@H](CS)NC(=O)CNC(=O)[C@H](Cc2ccc(O)cc2)NC(=O)[C@H](CC(C)C)NC(=O)[C@H](Cc2c[nH]c3ccccc23)NC1=O [Bm-3] ({CH2CO}-[dY]QNRSIWLYGCCG-NH2; thioether N-12) |  |  |  |  |  |  |  |  | pIC50, apparent C. elegans iPGM [1]: 5.05; pIC50, apparent E. coli iPGM [2]: 5.03
2 | CC(C)C[C@H](NC(=O)[C@H](Cc1ccc(O)cc1)NC(=O)[C@@H]1CSCC(=O)N[C@H](Cc2ccc(O)cc2)C(=O)N[C@@H](CC(=O)O)C(=O)N[C@@H](Cc2ccc(O)cc2)C(=O)N2CCC[C@H]2C(=O)NCC(=O)N[C@@H](CC(=O)O)C(=O)N[C@@H](Cc2ccc(O)cc2)C(=O)N1)C(=O)N[C@@H](Cc1ccc(O)cc1)C(=O)NCC(=O)N[C@H](C(N)=O)[C@@H](C)O [Ce-2b] | 15.8 nM | 692 nM | 10.5 nM |  |  |  |  |  | IC50 ([4]; pIC50 O. volvulus iPGM): 2450 nM
3 | CC[C@H](C)[C@@H]1NC(=O)[C@H](CCC(=O)O)NC(=O)[C@@H]2CCCN2C(=O)[C@H](C)NC(=O)[C@H](CC(N)=O)NC(=O)[C@@H]2CCCN2C(=O)[C@H](Cc2c[nH]c3ccccc23)NC(=O)[C@H](CO)NC(=O)[C@@H](Cc2ccc(O)cc2)NC(=O)CSC[C@@H](C(=O)N[C@@H](CS)C(=O)NCC(N)=O)NC(=O)[C@H](CCCCN)NC(=O)[C@H](Cc2c[nH]c3ccccc23)NC1=O [Bm-1] ({CH2CO}-[dY]SWPNAPEIWKCCG-NH2; thioether N-12) |  |  |  | 5010 nM | 1290 nM | 1320 nM | 4900 nM |  | 
4 | CC(C)C[C@@H]1NC(=O)[C@@H](Cc2ccc(O)cc2)NC(=O)CSC[C@@H](C(=O)N[C@@H](CC(N)=O)C(=O)N[C@H](C(=O)N[C@@H](CS)C(=O)NCC(N)=O)[C@@H](C)O)NC(=O)[C@H](CC(N)=O)NC(=O)[C@@H]2CCCN2C(=O)[C@H](Cc2c[nH]c3ccccc23)NC(=O)[C@H](CCC(=O)O)NC1=O [Bm-4] ({CH2CO}-[dY]LEWPNCNTCG-NH2; thioether N-7) |  |  |  | 2450 nM | 575 nM | 794 nM | 2750 nM |  | 
5 | NC(=O)[C@H](Cc1ccc(O)cc1)NC(=O)[C@@H]1CSCC(=O)N[C@H](Cc2ccc(O)cc2)C(=O)N[C@@H](CC(=O)O)C(=O)N[C@@H](Cc2ccc(O)cc2)C(=O)N2CCC[C@H]2C(=O)NCC(=O)N[C@@H](CC(=O)O)C(=O)N[C@@H](Cc2ccc(O)cc2)C(=O)N1 [Ce-2f] ({CH2CO}-[dY]DYPGDYCY-NH2; thioether N-8) | 51300 nM |  | 25700 nM |  |  |  |  |  | 
6 | CC(C)C[C@H](NC(=O)[C@H](Cc1ccc(O)cc1)NC(=O)[C@@H]1CSCC(=O)N[C@H](Cc2ccc(O)cc2)C(=O)N[C@@H](CC(=O)O)C(=O)N[C@@H](Cc2ccc(O)cc2)C(=O)N2CCC[C@H]2C(=O)NCC(=O)N[C@@H](CC(=O)O)C(=O)N[C@@H](Cc2ccc(O)cc2)C(=O)N1)C(=O)N[C@@H](Cc1ccc(O)cc1)C(=O)NCC(=O)N[C@H](C(=O)N[C@@H](CS)C(N)=O)[C@@H](C)O [Ce-2a] | 0.174 nM | 0.324 nM | 0.263 nM |  |  |  |  | 49 nM | IC50 ([1]; pIC50, M C. elegans iPGM): 4.07 nM; IC50 ([3]; pIC50, M B. malayi iPGM): 8.51 nM; IC50 ([4]; pIC50 O. volvulus iPGM): 0.209 nM; IC50 ([2]; pIC50, M E. coli iPGM): 3.09 nM
7 | CC(C)C[C@H](NC(=O)[C@H](Cc1ccc(O)cc1)NC(=O)[C@@H]1CSCC(=O)N[C@H](Cc2ccc(O)cc2)C(=O)N[C@@H](CC(=O)O)C(=O)N[C@@H](Cc2ccc(O)cc2)C(=O)N2CCC[C@H]2C(=O)NCC(=O)N[C@@H](CC(=O)O)C(=O)N[C@@H](Cc2c[nH]cn2)C(=O)N1)C(=O)N[C@@H](Cc1ccc(O)cc1)C(=O)NCC(=O)N[C@H](C(=O)N[C@@H](CS)C(=O)NCC(N)=O)[C@@H](C)O [Ce-1] |  |  |  | 3.98 nM | 12 nM |  | 4.17 nM | 24.5 nM | 
8 | CC(C)[C@@H]1NC(=O)[C@H](C)NC(=O)[C@@H](Cc2ccc(O)cc2)NC(=O)CSC[C@@H](C(=O)N[C@@H](CCCNC(=N)N)C(=O)N[C@H](C(=O)N[C@@H](CS)C(=O)NCC(N)=O)[C@@H](C)O)NC(=O)[C@H](CC(N)=O)NC(=O)[C@@H]2CCCN2C(=O)[C@H](Cc2c[nH]c3ccccc23)NC1=O [Bm-7] ({CH2CO}-[dY]AVWPNCRTCG-NH2; thioether N-7) |  |  |  | 7410 nM | 5250 nM | 4270 nM | 7590 nM |  | 
9 | CC[C@H](C)[C@@H]1NC(=O)[C@H](CCCNC(=N)N)NC(=O)[C@H](Cc2ccccc2)NC(=O)[C@@H]2CCCN2C(=O)[C@H](CC(N)=O)NC(=O)[C@H](C)NC(=O)[C@H](CC(C)C)NC(=O)[C@H]([C@@H](C)O)NC(=O)[C@H]([C@@H](C)CC)NC(=O)[C@H](Cc2ccc(O)cc2)NC(=O)CSC[C@@H](C(=O)NCC(N)=O)NC(=O)[C@H](Cc2c[nH]cn2)NC(=O)[C@H](CC(C)C)NC1=O [Ce-3] ({CH2CO}-YITLANPFRILHCG-NH2; thioether N-13) |  |  |  |  |  |  | 537 nM | 5500 nM | IC50 [1]: 468 nM
10 | CC(=O)N[C@H](Cc1ccc(O)cc1)C(=O)N[C@@H](CC(=O)O)C(=O)N[C@@H](Cc1ccc(O)cc1)C(=O)N1CCC[C@H]1C(=O)NCC(=O)N[C@@H](CC(=O)O)C(=O)N[C@@H](Cc1ccc(O)cc1)C(=O)N[C@@H](CO)C(=O)N[C@@H](Cc1ccc(O)cc1)C(=O)N[C@@H](CC(C)C)C(=O)N[C@@H](Cc1ccc(O)cc1)C(=O)NCC(=O)N[C@H](C(=O)N[C@@H](CS)C(=O)NCC(N)=O)[C@@H](C)O [Ce-L2] (Ac-[dY]DYPGDYSYLYGTCG-NH2) | 1150 nM | 12900 nM | 1320 nM |  |  |  |  |  | 
11 | CC[C@H](C)[C@@H]1NC(=O)[C@H](CCCNC(=N)N)NC(=O)[C@H](Cc2ccccc2)NC(=O)[C@@H]2CCCN2C(=O)[C@H](CC(N)=O)NC(=O)[C@H](C)NC(=O)[C@H](CC(C)C)NC(=O)[C@H]([C@@H](C)O)NC(=O)[C@H]([C@@H](C)O)NC(=O)[C@H](Cc2ccc(O)cc2)NC(=O)CSC[C@@H](C(=O)NCC(N)=O)NC(=O)[C@H](Cc2c[nH]cn2)NC(=O)[C@H](CC(C)C)NC1=O [Ce-4] ({CH2CO}-YTTLANPFRILHCG-NH2; thioether N-13) |  |  |  |  |  |  |  | 4270 nM | IC50 [1]: 6030 nM
12 | CC(C)C[C@@H]1NC(=O)[C@@H](Cc2ccc(O)cc2)NC(=O)CSC[C@@H](C(=O)N[C@@H](CO)C(=O)N[C@H](C(=O)N[C@@H](CS)C(=O)NCC(N)=O)[C@@H](C)O)NC(=O)[C@H](CC(N)=O)NC(=O)[C@@H]2CCCN2C(=O)[C@H](Cc2c[nH]c3ccccc23)NC(=O)[C@H](CC(=O)O)NC1=O [Bm-5] ({CH2CO}-[dY]LDWPNCSTCG-NH2; thioether N-7) |  |  |  | 2510 nM | 692 nM | 1020 nM | 2880 nM |  | 
13 | CC(C)C[C@H](NC(=O)[C@H](Cc1ccc(O)cc1)NC(=O)[C@@H]1CSCC(=O)N[C@H](Cc2ccc(O)cc2)C(=O)N[C@@H](CC(=O)O)C(=O)N[C@@H](Cc2ccc(O)cc2)C(=O)N2CCC[C@H]2C(=O)NCC(=O)N[C@@H](CC(=O)O)C(=O)N[C@@H](Cc2ccc(O)cc2)C(=O)N1)C(=O)N[C@@H](Cc1ccc(O)cc1)C(=O)NCC(=O)N[C@H](C(=O)N[C@@H](CO)C(=O)NCC(N)=O)[C@@H](C)O [Ce-2S] | 8.32 nM | 525 nM | 10 nM |  |  |  |  | 447 nM | IC50 [1]: ~10 nM; IC50 ([1]; pIC50, M C. elegans iPGM): 12 nM; IC50 ([3]; pIC50, M B. malayi iPGM): 407 nM; IC50 ([4]; pIC50 O. volvulus iPGM): 1020 nM; IC50 ([2]; IC50): ~10 nM
